In US10457659B2, “Compositions and methods for increasing proliferation of adult salivary stem cells” (The Board of Trustees of the Leland Stanford Junior …, priority 2011, dated 2019):
Entries after “also recorded” stand apart in the source; their conditions may differ.

Tests used:
c-kit+/CD90+ SMG cells = assay: FACS count of c-Kit+/CD90+ submandibular gland cells after 7 days of infusion in mice (FIG. 3C); type: in vivo, mouse
Procedure: All animal procedures were approved by the Institutional Animal Care and Use Committee at Stanford University. Female C57BL/6 mice (n=10, 4-5 weeks old, Jackson Laboratory, Sacramento, Calif.) were used for ALDH3 activator study.
(§1) An ALDH3 activator (Alda89, 100 ug/ml, n=5) and Vehicle control ([…]; 50% DMSO and 50% PEG400, n=5) was injected into ALZET osmotic pumps (DURECT Corporation, Cupertino, Calif.). The osmotic pumps were implanted subcutaneously into C57BL/6 mice. The mice were euthanized after 7 days and salivary gland tissues were collected for analysis of salsiphere formation and BrdU incorporation as described above. In addition, FACs analysis for anti-mouse c-Kit and anti-mouse CD90 (BD Biosciences, San Jose, Calif.) cell population was also performed in pooled SMG samples.

SMG salispheres = assay: Salisphere formation and BrdU incorporation of unselected SMG cells from treated mice (FIG. 3D); type: in vivo, mouse
Procedure: After 3 days of culture, cells were stained with Brdu staining kit according to the manufacturer's instructions (Invitrogen, Carlsbdad, Calif.). The total number of salispheres and BrdU positive salispheres per 96 well were counted under light microscopy. For each group 20 wells were counted and experiments were repeated 3 times.
as §1

ALDH2 = molecular target: T1, ALDH2 (Homo sapiens, UniProt P05091); assay: Catalytic activity of ALDH2 isozyme (isozyme selectivity, FIG. 3A); type: biochemical
T1 sequence (P05091 18-517): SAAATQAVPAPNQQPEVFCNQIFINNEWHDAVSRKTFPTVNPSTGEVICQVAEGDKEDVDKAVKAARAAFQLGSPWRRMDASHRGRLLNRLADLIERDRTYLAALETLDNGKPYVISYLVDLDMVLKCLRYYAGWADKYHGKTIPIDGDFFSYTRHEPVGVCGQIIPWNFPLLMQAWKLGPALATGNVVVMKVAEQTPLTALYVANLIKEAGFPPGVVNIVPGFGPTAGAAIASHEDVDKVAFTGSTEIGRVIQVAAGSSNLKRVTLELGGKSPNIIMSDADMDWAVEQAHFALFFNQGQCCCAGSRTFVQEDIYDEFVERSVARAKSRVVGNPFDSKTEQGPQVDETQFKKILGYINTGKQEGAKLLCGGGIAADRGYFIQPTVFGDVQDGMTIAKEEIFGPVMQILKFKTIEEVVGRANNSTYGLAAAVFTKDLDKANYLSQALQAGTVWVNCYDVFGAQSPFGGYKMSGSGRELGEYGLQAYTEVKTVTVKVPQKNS
Procedure: (§2) As an example of an assay for dehydrogenase activity, ALDH aldehyde dehydrogenase activity is assayed at 25° C. in 50 mM sodium pyrophosphate HCl buffer, pH 9.0, 100 mM sodium phosphate buffer, pH 7.4, or 50 mM sodium phosphate buffer, pH 7.4, where the buffer includes NAD^+ (e.g., 0.8 mM NAD^+, or higher, e.g., 1 mM, 2 mM, or 5 mM NAD^+) and an aldehyde substrate such as 14 μM propionaldehyde. Reduction of NAD^+ is monitored at 340 nm using a spectrophotometer, or by fluorescence increase using a fluoromicrophotometer Enzymatic activity can be assayed using a standard spectrophotometric method, e.g., by measuring a reductive reaction of the oxidized form of nicotinamide adenine dinucleotide (NAD^+) to its reduced form, NADH, at 340 nm, as described in US 2005/0171043; and WO 2005/057213, and as depicted schematically in FIG. 4. In an exemplary assay, the reaction is carried out at 25° C. in […] pyrophosphate (NaPPi) buffer, pH 9.0, 2.4 mM NAD^+ and 10 mM acetaldehyde as the substrate. Enzymatic activity is measured by a reductive reaction of NAD^+ to NADH at 340 nm, as described in US 2005/0171043; and WO 2005/057213. Alternatively, the production of NADH can be coupled with another enzymatic reaction that consumes NADH and that provides for a detectable signal. […]

[1] = molecular target: T2, human ALDH3 recombinant enzyme (Homo sapiens, UniProt P30838); assay: Catalytic activity of recombinant ALDH3 enzyme (isozyme selectivity, FIG. 3A); type: biochemical; conditions: n=3, p<0.01
T2 sequence (P30838 1-453): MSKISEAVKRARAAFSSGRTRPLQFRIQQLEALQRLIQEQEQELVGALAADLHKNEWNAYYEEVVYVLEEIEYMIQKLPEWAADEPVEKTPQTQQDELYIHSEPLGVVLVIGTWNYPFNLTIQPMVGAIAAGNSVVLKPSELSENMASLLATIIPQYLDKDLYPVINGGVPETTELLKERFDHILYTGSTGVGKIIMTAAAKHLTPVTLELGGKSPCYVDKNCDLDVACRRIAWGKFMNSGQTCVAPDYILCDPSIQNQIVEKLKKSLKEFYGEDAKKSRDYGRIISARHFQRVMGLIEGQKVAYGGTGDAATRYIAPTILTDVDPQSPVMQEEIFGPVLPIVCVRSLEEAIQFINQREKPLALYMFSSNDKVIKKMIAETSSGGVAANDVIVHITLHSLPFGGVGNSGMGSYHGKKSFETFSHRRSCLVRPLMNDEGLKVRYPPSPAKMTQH
Procedure: as §2

ALDH5 = assay: Catalytic activity of ALDH5 isozyme (isozyme selectivity, FIG. 3A); type: biochemical
Procedure: as §2

ALDH1 = molecular target: T3, ALDH1 (Homo sapiens, UniProt P00352); assay: Catalytic activity of ALDH1 isozyme (isozyme selectivity, FIG. 3A); type: biochemical
T3 sequence (P00352 1-501): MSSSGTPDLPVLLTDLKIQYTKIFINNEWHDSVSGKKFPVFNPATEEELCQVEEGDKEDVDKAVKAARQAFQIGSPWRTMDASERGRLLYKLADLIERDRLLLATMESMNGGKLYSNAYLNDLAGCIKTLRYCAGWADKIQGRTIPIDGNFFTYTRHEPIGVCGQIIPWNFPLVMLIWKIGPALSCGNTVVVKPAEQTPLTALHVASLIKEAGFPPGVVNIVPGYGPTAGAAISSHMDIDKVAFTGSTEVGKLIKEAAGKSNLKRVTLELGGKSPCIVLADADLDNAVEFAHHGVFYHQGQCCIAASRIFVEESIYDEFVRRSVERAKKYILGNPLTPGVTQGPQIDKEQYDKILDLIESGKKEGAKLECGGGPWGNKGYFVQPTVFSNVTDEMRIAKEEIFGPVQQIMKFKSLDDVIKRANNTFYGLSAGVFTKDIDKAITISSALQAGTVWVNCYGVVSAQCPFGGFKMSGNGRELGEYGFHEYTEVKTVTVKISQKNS
Procedure: as §2

ALDH3 = molecular target: T4, ALDH3 (Mus musculus, UniProt P47739); assay: ALDH3 enzyme activity in esophagus cell homogenate after osmotic pump infusion into mice (FIG. 3B); type: in vivo; conditions: 34 mg/kg/day, n=5, p<0.05
T4 construct: enhanced ALDH3 enzyme activity by 29% in esophagus cell homogenate; from tissue; host or cells: esophagus cell homogenate of C57BL/6 mice
T4 sequence (P47739 1-453): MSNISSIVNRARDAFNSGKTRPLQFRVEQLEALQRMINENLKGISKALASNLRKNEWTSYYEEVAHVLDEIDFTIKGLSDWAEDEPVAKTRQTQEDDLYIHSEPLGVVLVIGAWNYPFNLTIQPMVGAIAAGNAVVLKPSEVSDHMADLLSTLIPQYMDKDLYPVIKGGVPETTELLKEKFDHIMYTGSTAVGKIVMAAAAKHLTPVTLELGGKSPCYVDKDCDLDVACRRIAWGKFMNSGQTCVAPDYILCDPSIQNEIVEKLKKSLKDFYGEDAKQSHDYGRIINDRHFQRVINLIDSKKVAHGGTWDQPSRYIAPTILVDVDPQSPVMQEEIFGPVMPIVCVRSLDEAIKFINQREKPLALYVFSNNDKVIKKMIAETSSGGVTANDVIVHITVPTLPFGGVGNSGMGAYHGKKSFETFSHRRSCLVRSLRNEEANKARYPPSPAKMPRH

## C=CCc1ccc2c(c1)OCO2 [Alda-89, 5-(2-propenyl)-1,3-benzodioxole]
c-kit+/CD90+ SMG cells; 7 days of treatment
  change in number of c-kit+/CD90+ SMG cells compared to vehicle control: more than doubling; also recorded: more than doubled
c-kit+/CD90+ SMG cells; 7 days of treatment by subcutaneous osmotic pump, vehicle 7.37±0.45%, p<0.05
  number of c-kit+/CD90+ cells in SMG: 17.8±0.95%
SMG salispheres; adult mice, summary statement
  change in BrdU+ salisphere number after treatment of adult mice: more than doubling
SMG salispheres; unselected SMG cells from mice treated 7 days, 3 days of culture, vehicle 66±1.42, p<0.05
  number of BrdU+ spheres: 91±0.83 spheres/5000 cells
SMG salispheres; unselected SMG cells from mice treated 7 days, 3 days of culture, vehicle 86±0.58, p<0.05
  total number of salispheres: 121±0.83 spheres/5000 cells
ALDH2
  effect on ALDH2 isozyme catalytic activity: no effect
[1]
  catalytic activity of human ALDH3 recombinant enzyme: 304.4±7.1 % of control
ALDH5
  effect on ALDH5 isozyme catalytic activity: no effect
ALDH1
  effect on ALDH1 isozyme catalytic activity: no effect
ALDH3
  enhancement of ALDH3 enzyme activity in esophagus cell homogenate vs vehicle control: 29%
